Laboratory results as given in US20260034112A1, “MULTI-CYCLIC IRAK1 AND IRAK4 INHIBITING COMPOUNDS AND USES THEREOF” (CHILDREN'S HOSPITAL MEDICAL CENTER, priority 2022, published 2026).
Read-outs that look alike come from different tables or passages of the source.

Tests used:
[1] = system: NF-kB activity upon TLR2 stimulation with PAM3CSK4 in THP1-Blue NF-kB SEAP reporter cells; assay: THP1-Blue NF-kB SEAP reporter assay, TLR2 stimulation with PAM3CSK4; type: cell-based, human
[2] = system: MDS/AML cell lines and patient-derived samples; assay: Clonogenic assay (colony formation in methylcellulose); type: cell-based, human; conditions: for Inhibition of colony formation: MDSL, TF1, AML1714, AML1294, methylcellulose
[3] = system: IRAK1 phosphorylation in MDS/AML cells; assay: Immunoblotting for phospho-IRAK1; type: cell-based, human; conditions: MDSL cells and patient-derived AML(1714), 10 μM, 24 hours
[4] = early phase trials, cited from earlier work
[5] = system: NF-kB activity upon IL-1β stimulation (IL-1R) in THP1 NF-kB reporter cells; assay: THP1 NF-kB reporter assay, IL-1β stimulation; type: cell-based, human; conditions: for IC50: Homo sapiens
THP1 and MDSL cells = assay: Growth curves with IRAK4 inhibitors; type: cell-based, human; conditions: IRAK1KO versus WT MDSL (10 μM) and THP1 (20 μM)
[6] = Homo sapiens, THP-1, THP1 NF-kB reporter cells, read-out: IC50 vs. Pam3CSK4 (TLR2-mediated NF-kB activation)
[7] = THP1 NF-kB reporter cells, result in words

With `Cc1cc(-c2nc(C(=O)Nc3cc4oc(N5CCOCC5)nc4nc3N3CC[C@@H](O)C3)co2)ccn1` [CA-4948, emavusertib] as the compound, how does the IC50 [1, 6] read?
The IC50 was 500 nM.

And the “Sensitivity of IRAK1KO MDS/AML cells (growth, colony formation)” value ([2]; IRAK1KO versus WT THP1 and MDSL cells)?
Its value is “more sensitive”.

What about the “Inhibition of colony formation” value [2] of the same compound?
Its value is “dose-dependent, yet incomplete, inhibition of colony formation”.

What about the IRAK1 phosphorylation [3] of the same compound?
The IRAK1 phosphorylation was “increased IRAK1 phosphorylation”.

And the “Complete or partial response rates” value ([4]; HR-MDS and AML patients)?
The value was roughly 40%.

What about the “AML patients with spliceosome mutations reaching CR or CRh” value [4] of the same compound?
The value was 40%.

What about the “HR-MDS patients achieving a CR” value [4] of the same compound?
The value was 57%.

What does the source list for `CC[C@@H]1[C@H](F)C(=O)N[C@@H]1COc1nccc2cc(C(N)=O)c(OC)cc12` [PF-06650833, Zimlovisertib]?
IC50 [1, 6]: 7.2 nM; IC50 ([1]; Homo sapiens, THP-1, Table 1, unit nM, read-out: THP-1 NFkB PAM IC50): 496 nM; IC50 ([1]; THP1 NF-kB reporter cells, read-out: IC50 vs. Pam3CSK4 (TLR2-mediated NF-kB activation)): 7 nM; Suppression of NF-kB signaling through TLR2 [1, 7]: fully suppress; LOG (PAM) ([1]; Table 1, log of PAM IC50): 2.70; IC50 ([5]; THP-1, THP1 NF-kB reporter cells, read-out: IC50 vs. IL-1β (NF-kB activation)): 5.7 nM; IC50 ([5]; THP-1, Table 1, unit nM, read-out: THP-1 NFkB IL1B IC50): 678 nM; Span (extent of suppression of signaling through the IL-1R) ([5]; THP1 NF-kB reporter cells, IL-1β): 75%; Suppression of NF-kB signaling through the IL-1 receptor [5, 7]: do not fully suppress; LOG (IL1B) ([5]; Table 1, log of IL1B IC50): 2.83; Inhibition of colony formation [2]: inhibition of colony formation by MDSL and TF1 cells but was less effective at suppressing the patient-derived AML samples; Sensitivity of IRAK1KO MDS/AML cells (growth curves) (THP1 and MDSL cells): A similar effect was also observed
